For the assay, the target named is T1, human orexin type 2 receptor (hOX2R) (Homo sapiens, UniProt O43614).
T1 construct: expressed in transfected cells
T1 sequence (O43614 1-444): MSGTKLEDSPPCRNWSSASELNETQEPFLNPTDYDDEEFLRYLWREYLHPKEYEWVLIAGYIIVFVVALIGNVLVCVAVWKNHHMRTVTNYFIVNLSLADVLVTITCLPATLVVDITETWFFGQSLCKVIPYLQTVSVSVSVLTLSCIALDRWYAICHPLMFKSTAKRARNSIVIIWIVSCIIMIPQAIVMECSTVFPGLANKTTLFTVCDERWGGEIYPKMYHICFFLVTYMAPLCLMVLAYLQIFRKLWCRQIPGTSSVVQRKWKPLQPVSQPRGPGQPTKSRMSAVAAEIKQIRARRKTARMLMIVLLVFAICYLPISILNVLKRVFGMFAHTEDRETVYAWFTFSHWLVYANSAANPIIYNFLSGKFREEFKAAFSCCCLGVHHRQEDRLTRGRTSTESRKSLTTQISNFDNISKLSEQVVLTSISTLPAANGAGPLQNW
Put plainly: Measurement of orexin type 2 receptor agonist activity (FLIPR calcium fluorescence). In kind it is cell-based. Conditions: for EC50: read-out: hOx2 pEC50 (converted); for Emax: CHO, read-out: hOx2 Emax (%). In short, it runs like this:
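Agonism was read as fluorescence in cells stably expressing human OX2R. E. is the response at 10 μM relative to orexin A as full agonist (100%).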

[1] abbreviates: CHO cells expressing hOX2R, FLIPR calcium fluorescence.

Read-outs that look alike come from different tables or passages of the source.

As to `COC1(CNC(=O)N2CC3(CC3)[C@H](NS(C)(=O)=O)[C@@H]2Cc2cccc(-c3ccccc3)c2F)CC1` [Compound 100, (6S,7S)-6-((2-fluoro-[1,1′-biphenyl]-3-yl)methyl)-N-((1-methoxycyclopropyl)methyl)-7-(methylsulfonamido)-5-azaspiro[2.4]heptane-5-carboxamide], under setting [1], the EC50 is 0.0794 to 1 nM and the Emax lay within 90 to 100%.

`C[C@H](CF)NC(=O)N1CC2(CC2)[C@H](NS(C)(=O)=O)[C@@H]1Cc1cccc(-c2ccccc2)c1F` [Compound 101, (6S,7S)-6-((2-fluoro-[1,1′-biphenyl]-3-yl)methyl)-N-((R)-1-fluoropropan-2-yl)-7-(methylsulfonamido)-5-azaspiro[2.4]heptane-5-carboxamide]: under setting [1], the EC50 is 0.0794 to 1 nM and the Emax fell in the range of 90 to 100%.

Regarding `COC[C@@H]1CCN1C(=O)N1CC2(CC2)[C@H](NS(C)(=O)=O)[C@@H]1Cc1cccc(-c2ccccc2)c1F` [Compound 102, N-((6S,7S)-6-((2-fluoro-[1,1′-biphenyl]-3-yl)methyl)-5-((S)-2-(methoxymethyl)azetidine-1-carbonyl)-5-azaspiro[2.4]heptan-7-yl)methanesulfonamide], under setting [1], the EC50 is 1 to 10 nM and the maximal effect (Emax) lay within 90 to 100%.

Consider `COC[C@H]1CCN1C(=O)N1CC2(CC2)[C@H](NS(C)(=O)=O)[C@@H]1Cc1cccc(-c2ccccc2)c1F` [Compound 103, N-((6S,7S)-6-((2-fluoro-[1,1′-biphenyl]-3-yl)methyl)-5-((R)-2-(methoxymethyl)azetidine-1-carbonyl)-5-azaspiro[2.4]heptan-7-yl)methanesulfonamide], for which, under setting [1], the EC50 is 10 to 100 nM and the Emax fell in the range of 90 to 100%.

As for `CS(=O)(=O)N[C@@H]1[C@H](Cc2cccc(-c3ccccc3)c2F)N(C(=O)NCC2(F)CC2)CC12CC2` [Compound 104, (6S,7S)-6-((2-fluoro-[1,1′-biphenyl]-3-yl)methyl)-N-((1-fluorocyclopropyl)methyl)-7-(methylsulfonamido)-5-azaspiro[2.4]heptane-5-carboxamide], under setting [1], the EC50 was 1 to 10 nM and the Emax lay in the range of 90 to 100%.

Consider `CS(=O)(=O)N[C@@H]1[C@H](Cc2cccc(-c3ccccc3F)c2F)N(C(=O)[C@H]2CCO2)CC12CC2` [Compound 107, N-((6S,7S)-6-((2,2′-difluoro-[1,1′-biphenyl]-3-yl)methyl)-5-((R)-oxetane-2-carbonyl)-5-azaspiro[2.4]heptan-7-yl)methanesulfonamide], for which, under setting [1], the EC50 was 1 to 10 nM and the Emax lay within 90 to 100%.

Regarding `CN(C)C(=O)N1CC2(CC2)[C@H](NS(C)(=O)=O)[C@@H]1Cc1cccc(-c2ccccc2)c1F` [Compound 110, (6S,7S)-6-((2-fluoro-[1,1′-biphenyl]-3-yl)methyl)-N,N-dimethyl-7-(methylsulfonamido)-5-azaspiro[2.4]heptane-5-carboxamide], the maximal response (Emax) lay in the range of 90 to 100%. Further, under setting [1], the EC50 is 0.0794 to 1 nM.

With `CCCNC(=O)N1CC2(CC2)[C@H](NS(C)(=O)=O)[C@@H]1Cc1cccc(-c2ccccc2)c1F` [Compound 111, (6S,7S)-6-((2-fluoro-[1,1′-biphenyl]-3-yl)methyl)-7-(methylsulfonamido)-N-propyl-5- .azaspiro[2.4]heptane-5-carboxamide], under setting [1], the EC50 is 1 to 10 nM and the Emax is 90 to 100%.

In the case of `CS(=O)(=O)N[C@@H]1[C@H](Cc2cccc(-c3ccccc3)c2F)N(C(=O)NCC(F)F)CC12CC2` [Compound 112, (6S,7S)-N-(2,2-difluoroethyl)-6-((2-fluoro-[1,1′-biphenyl]-3-yl)methyl)-7-(methylsulfonamido)-5-azaspiro[2.4]heptane-5-carboxamide], under setting [1], the EC50 is 0.0794 to 1 nM and the maximal effect (Emax) was 90 to 100%.

On to `CS(=O)(=O)N[C@@H]1[C@H](Cc2cccc(-c3ccccc3)c2)N(C(=O)C23CC2C3)CC12CC2` (stereo partly drawn) [Compound 113, N-((6S,7S)-6-([1,1′-biphenyl]-3-ylmethyl)-5-(bicyclo[1.1.0]butane-1-carbonyl)-5-azaspiro[2.4]heptan-7-yl)methanesulfonamide], for which, under setting [1], the EC50 is 1 to 10 nM and the maximal effect (Emax) lay in the range of 90 to 100%.

Turning to `CC(C)S(=O)(=O)N[C@@H]1[C@H](Cc2cccc(-c3ccccc3)c2)N(C(=O)[C@H]2CCO2)CC12CC2` [Compound 114, N-((6S,7S)-6-([1,1′-biphenyl]-3-ylmethyl)-5-((R)-oxetane-2-carbonyl)-5-azaspiro[2.4]heptan-7-yl)propane-2-sulfonamide], under setting [1], the EC50 is 1 to 10 nM and the Emax lay in the range of 80 to 90%.

In the case of `O=C([C@H]1CCO1)N1CC2(CC2)[C@H](NS(=O)(=O)C(F)F)[C@@H]1Cc1cccc(-c2ccccc2)c1` [Compound 115, N-((6S,7S)-6-([1,1′-biphenyl]-3-ylmethyl)-5-((R)-oxetane-2-carbonyl)-5-azaspiro[2.4]heptan-7-yl)-1,1-difluoromethanesulfonamide], the maximum response (Emax) lay within 90 to 100%. Besides, the EC50 under setting [1] is 1 to 10 nM.

For the molecule `CN(C)S(=O)(=O)N[C@@H]1[C@H](Cc2cccc(-c3ccccc3)c2F)N(C(=O)N2CCC2)CC12CC2` [Compound 116, N-((6S,7S)-5-(azetidine-1-carbonyl)-6-((2-fluoro-[1,1′-biphenyl]-3-yl)methyl)-5-azaspiro[2.4]heptan-7-yl)-N,N-dimethylsulfuric diamide], the Emax is 90 to 100%. For the same molecule, under setting [1], the EC50 is 0.0794 to 1 nM.

Regarding `CN(C)S(=O)(=O)N[C@@H]1[C@H](Cc2cccc(-c3ccccc3)c2F)N(C(=O)N2CC(F)C2)CC12CC2` [Compound 117, N-((6S,7S)-6-((2-fluoro-[1,1′-biphenyl]-3-yl)methyl)-5-(3-fluoroazetidine-1-carbonyl)-5-azaspiro[2.4]heptan-7-yl)-N,N-dimethylsulfuric diamide], under setting [1], the EC50 was 0.0794 to 1 nM and the maximal effect (Emax) lay within 90 to 100%.

For `COC1CN(C(=O)N2CC3(CC3)[C@H](NS(=O)(=O)N(C)C)[C@@H]2Cc2cccc(-c3ccccc3)c2F)C1` [Compound 118, N-((6S,7S)-6-((2-fluoro-[1,1′-biphenyl]-3-yl)methyl)-5-(3-methoxyazetidine-1-carbonyl)-5-azaspiro[2.4]heptan-7-yl)-N,N-dimethylsulfuric diamide], under setting [1], the EC50 is 1 to 10 nM and the Emax was in the range of 90 to 100%.

For `CN(C)S(=O)(=O)N[C@@H]1[C@H](Cc2cccc(-c3ccccc3)c2F)N(C(=O)[C@H](O)C(F)(F)F)CC12CC2` [Compound 119, N-((6S,7S)-6-((2-fluoro-[1,1′-biphenyl]-3-yl)methyl)-5-((S)-3,3,3-trifluoro-2-hydroxypropanoyl)-5-azaspiro[2.4]heptan-7-yl)-N,N-dimethylsulfuric diamide], under setting [1], the EC50 was 0.0794 to 1 nM and the Emax lay within 90 to 100%.

For `CN(C)S(=O)(=O)N[C@@H]1[C@H](Cc2cccc(-c3ccccc3)c2F)N(C(=O)C2(O)CCC2)CC12CC2` [Compound 120, N-((6S,7S)-6-((2-fluoro-[1,1′-biphenyl]-3-yl)methyl)-5-(1-hydroxycyclobutane-1-carbonyl)-5-azaspiro[2.4]heptan-7-yl)-N,N-dimethylsulfuric diamide], under setting [1], the EC50 was 0.0794 to 1 nM and the Emax was 90 to 100%.

On to `CCNC(=O)N1CC2(CC2)[C@H](NS(=O)(=O)N(C)C)[C@@H]1Cc1cccc(-c2ccccc2)c1F` [Compound 121], for which, under setting [1], the EC50 was 0.0794 to 1 nM and the maximum response (Emax) lay within 90 to 100%.

With `CS(=O)(=O)N[C@@H]1[C@H](Cc2cc(F)cc(-c3cccc(F)c3)c2F)N(C(=O)[C@H]2CCO2)CC12CC2` [Compound 122, N-((6S,7S)-5-((R)-oxetane-2-carbonyl)-6-((2,3′,5-trifluoro-[1,1′-biphenyl]-3-yl)methyl)-5-azaspiro[2.4]heptan-7-yl)methanesulfonamide], under setting [1], the EC50 is 0.0794 to 1 nM and the Emax lay within 90 to 100%.

For `O=C([C@H]1CCO1)N1CC2(CC2)[C@H](NS(=O)(=O)CF)[C@@H]1Cc1cc(F)cc(-c2cccc(F)c2)c1F` [Compound 123, 1-fluoro-N-((6S,7S)-5-((R)-oxetane-2-carbonyl)-6-((2,3′,5-trifluoro-[1,1′-biphenyl]-3-yl)methyl)-5-azaspiro[2.4]heptan-7-yl)methanesulfonamide], under setting [1], the EC50 is 0.0794 to 1 nM and the maximum response (Emax) lay in the range of 90 to 100%.

Consider `CN(C)S(=O)(=O)N[C@@H]1[C@H](Cc2cc(F)cc(-c3cccc(F)c3)c2F)N(C(=O)[C@H]2CCO2)CC12CC2` [Compound 124, 1-fluoro-N-((6S,7S)-5-((R)-oxetane-2-carbonyl)-6-((2,3′,5-trifluoro-[1,1′-biphenyl]-3-yl)methyl)-5-azaspiro[2.4]heptan-7-yl)-N,N-dimethylsulfuric diamide], for which, under setting [1], the EC50 was 0.0794 to 1 nM and the Emax lay within 80 to 90%.

Turning to `O=C([C@H]1CCO1)N1CC2(CC2)[C@H](NS(=O)(=O)CF)[C@@H]1Cc1cccc(-c2cccc(F)c2)c1F` [Compound 132, N-((6S,7S)-6-((2,3′-dfluoro-1,1′-biphenyl-3-yl)methyl)-5-((R)-oxetane-2-carbonyl)-5-azaspiro[2.4]heptan-7-yl)-1-fluoromethanesulfonamide], under setting [1], the EC50 is 0.0794 to 1 nM and the Emax lay within 90 to 100%.

For the molecule `CC(C)(O)C(=O)N1CC2(CC2)[C@H](NS(=O)(=O)CF)[C@@H]1Cc1cccc(-c2ccccc2)c1F` [Compound 134, 1-fluoro-N-((6S,7S)-6-((2-fluoro-[1,1′-biphenyl]-3-yl)methyl)-5-(2-hydroxy-2-methylpropanoyl)-5-azaspiro[2.4]heptan-7-yl)methanesulfonamide], under setting [1], the EC50 was 1 to 10 nM and the Emax was 90 to 100%.

The values are drawn from patent publication US12503475B2 (Centessa Pharmaceuticals (UK) Limited, priority 2020, dated 2025).
